In publication PMC10855164, “Ligand-Based Design of Selective Peptidomimetic uPA and TMPRSS2 Inhibitors with Arg Bioisosteres” (International Journal of Molecular Sciences, 2024):
Where “and” joins values, the source holds several entries; their conditions need not be identical. Identical values can stand only once.

What was measured:
Format in all cases: biochemical
[1] = target: T1, uPA (Homo sapiens, UniProt P00749); assay: fluorometric enzyme inhibition assay, uPA (Z-Gly-Gly-Arg-AMC); conditions: for Selectivity index [SI] uPA: quotient Ki uPA / Ki TMPRSS2
T1 construct: purchased Sigma Aldrich
Procedure: (§1) The inhibitory activity of the synthesized compounds towards the respective main- and off-target proteases was measured via fluorometric and colorimetric assays. Thus, fluorogenic AMC- or colorimetric pNA-based substrates with a peptide sequence suitable for the tested protease were utilized (see Supplementary Figure S2). At first, the compounds were screened against […] proteases (uPA, TMPRSS2, matriptase, tPA, thrombin, factor Xa) at 20 µM, and a cut-off value of 80% inhibition at this concentration was set, for the differentiation between nonactive (n.a.) and active inhibitors. Due to the reversible inhibition mechanism of the ketobenzothiazole derivates, the IC50 values were determined with Graphpad Prism 9, and afterwards converted to the corresponding Ki values for an adequate comparison between the inhibitory activities of the compounds toward all tested proteases. The Ki values were calculated using the Cheng–Prusoff equation [43].
(§2) Fluorometric inhibition assays
(§3) The inhibitory activities of the compounds against the proteases were determined by enzyme inhibition assays with fluorogenic or colorimetry-based substrates. The fluorescence, caused by cleaved AMC from the fluorogenic substrates (uPA, matriptase, TMPRSS2, thrombin), was measured in white flat-bottom 96-well plates from Greiner Bio-One using a Tecan Infinite F200 Pro plate reader. The absorption, caused by cleaved pNA from colorimetric substrates (factor Xa and tPA), was measured in transparent flat-bottom 96-well plates from Greiner Bio-One using a Tecan Spark 10M plate reader. All measurements with the main-target proteases (uPA and TMRPSS2) were performed as triplicates and with the off-target proteases (matriptase, factor Xa, tPA, thrombin) as duplicates. The substrates and the compounds were prepared as stock solutions in DMSO. Each well contained a total volume of 200 µL, consisting of 185 µL buffer, 5 µL inhibitor in DMSO or pure DMSO as negative control, 5 µL substrate in DMSO and 5 µL enzyme solution in buffer. Dilution series were prepared for the determination of the inhibition constants. The fluorescence signal and absorbance were measured every 30 s for 10 min at 25 or 37 °C with the corresponding excitation/emission (λex = 380 nm / λem = 460 nm) and absorbance (λabs = 405 nm) wavelengths, depending on the targeted protease. IC50 values for the reversible inhibitors were calculated with Graphpad Prism 9 by fitting the remaining enzymatic activity to the four parameter IC50 equation with Y [%] as the residual enzyme activity , Ymax as the maximum value of the dose response curve at inhibitor concentrations [I] = 0 µM, Ymin as the minimum value at high inhibitor concentrations and s as the hill coefficient.[1] The fluorescence progress curves and sigmoidal dose-response curve for inhibition of uPa by compound 38 is shown exemplary in Figure S2.
Figure S2: (left) Fluorescence progress curves for inhibition of uPa by cpd. 38. (right) Plot showing the respective IC50 value […]
(§4) Due to the dependence of the IC50 value on the substrate affinity and concentration, the Ki values were calculated with the Cheng-Prusoff equation, using the final substrate concentration [S] and the Michaelis-Menten constant KM, (2) for appropriate comparison of the inhibitory activities to the other enzymes and inhibitors.[1]
KM values were determined by fitting to the Michaelis-Menten equation using Graphpad Prism 9 with v [ΔF/min] as the substrate hydrolysis rate, vmax as the maximum slope of the dose-response curve, and the substrate [S] concentration.[1] The different substrates were serially diluted in DMSO. The measurement was done in analogy to the determination of the inhibitory activity, but with 5 µL pure DMSO instead of inhibitor solution. The fluorescence progress curves and Michaelis-Menten curve of the specific substrate of uPA is shown exemplarily […]
Figure S3: (left) Fluorescence progress curves of cleavage of Z-Gly-Gly-Arg-AMC by uPA. (right) Michaelis-Menten curve […]

[2] = target: T2, TMPRSS2 (Homo sapiens, UniProt O15393); assay: fluorometric enzyme inhibition assay, TMPRSS2 (Boc-Gln-Ala-Arg-AMC); conditions: for Selectivity index [SI] TMPRSS2: quotient Ki TMPRSS2 / Ki uPA
T2 construct: purchased Cusabio
Procedure: as §1, §2
as §3, with “S2. […]” for “S2.”
as §4
(§5) KM values were determined by fitting to the Michaelis-Menten equation using Graphpad Prism 9 with v [ΔF/min] as the substrate hydrolysis rate, vmax as the maximum slope of the dose-response curve, and the substrate [S] concentration.[1] The different substrates were serially diluted in DMSO. The measurement was done in analogy to the determination of the inhibitory activity, but with 5 µL pure DMSO instead of inhibitor solution. […]
(§6) The following buffers and substrates were used for the respective assays: uPA (50 mM Tris HCl pH = 7.9, 150 mM […]
(§7) TMPRSS2 (25 mM Tris HCl pH = 8.0, 150 mM NaCl, 5 mM CaCl2, 0.001% TX-100, 100 µM Boc-Gln-Ala-Arg-AMC (KM: 68.63 ± 6.64 µM), 25 °C, 3 nM TMPRSS2)[3]; matriptase (50 mM Tris HCl pH = 8.0, 150 mM NaCl, 5 mM CaCl2, […]

[3] = target: T3, matriptase (Homo sapiens, UniProt Q9Y5Y6); assay: fluorometric enzyme inhibition assay, matriptase (Boc-Leu-Arg-Arg-AMC)
T3 construct: catalytic domain of matriptase (uniport: Q9Y5Y6 aa 596–855); hexa-histidine (N); made in house; host or cells: Escherichia coli BL21 Gold (DE3)
T3 sequence (Q9Y5Y6 596-855): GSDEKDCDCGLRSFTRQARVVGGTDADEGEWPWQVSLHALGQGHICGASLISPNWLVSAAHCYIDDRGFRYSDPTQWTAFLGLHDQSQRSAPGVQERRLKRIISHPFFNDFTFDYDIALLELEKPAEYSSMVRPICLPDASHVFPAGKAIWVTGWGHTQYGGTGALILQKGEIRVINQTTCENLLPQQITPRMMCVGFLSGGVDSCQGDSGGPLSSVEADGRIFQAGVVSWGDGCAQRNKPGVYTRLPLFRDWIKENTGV
Procedure: as §1, §2
as §3, with “S2. […]” for “S2.”
as §4, §5, §6, §7

[4] = target: T4, tPA (Homo sapiens, UniProt P00750); assay: colorimetric enzyme inhibition assay, tPA (N-methylsulfonyl-D-Phe-Gly-Arg-pNA); conditions: from IC50 by Cheng-Prusoff; n.a. = not active, <80% inhibition at 20 µM
T4 construct: purchased Sigma Aldrich
Procedure: as §1, §2
as §3, with “S2. […]” for “S2.”
as §4
KM values were determined by fitting to the Michaelis-Menten equation using Graphpad Prism 9 with v [ΔF/min] as the substrate hydrolysis rate, vmax as the maximum slope of the dose-response curve, and the substrate [S] concentration.[1] The different substrates were serially diluted in DMSO. […]

[5] = target: T5, thrombin (Homo sapiens, UniProt P00734); assay: fluorometric enzyme inhibition assay, thrombin (Z-Gly-Gly-Arg-AMC); conditions: for Ki / Ki Thrombin: from IC50 by Cheng-Prusoff, n.a. = not active, <80% inhibition at 20 µM; for Selectivity index [SI] Thrombin: quotient Ki thrombin / Ki uPA
T5 construct: purchased Bio-techne
Procedure: as §1, §2
as §3, with “S2. […]” for “S2.”
as §4, §5, §6, §7

[6] = target: T6, factor Xa (Homo sapiens, UniProt P00742); assay: colorimetric enzyme inhibition assay, factor Xa (Z-D-Arg-Gly-Arg-pNA); conditions: for Ki / Ki Factor Xa: from IC50 by Cheng-Prusoff, n.a. = not active, <80% inhibition at 20 µM; for Selectivity index [SI] Factor Xa: quotient Ki factor Xa / Ki uPA
T6 construct: purchased Bio-techne
Procedure: as §1, §2
as §3, with “S2. […]” for “S2.”
as §4, §5, §6, §7

[7] = from IC50 by Cheng-Prusoff, n.a. = not active, <80% inhibition at 20 µM
[8] = quotient Ki matriptase / Ki uPA
[9] = quotient Ki matriptase / Ki TMPRSS2

T4 sequence (P00750 36-562): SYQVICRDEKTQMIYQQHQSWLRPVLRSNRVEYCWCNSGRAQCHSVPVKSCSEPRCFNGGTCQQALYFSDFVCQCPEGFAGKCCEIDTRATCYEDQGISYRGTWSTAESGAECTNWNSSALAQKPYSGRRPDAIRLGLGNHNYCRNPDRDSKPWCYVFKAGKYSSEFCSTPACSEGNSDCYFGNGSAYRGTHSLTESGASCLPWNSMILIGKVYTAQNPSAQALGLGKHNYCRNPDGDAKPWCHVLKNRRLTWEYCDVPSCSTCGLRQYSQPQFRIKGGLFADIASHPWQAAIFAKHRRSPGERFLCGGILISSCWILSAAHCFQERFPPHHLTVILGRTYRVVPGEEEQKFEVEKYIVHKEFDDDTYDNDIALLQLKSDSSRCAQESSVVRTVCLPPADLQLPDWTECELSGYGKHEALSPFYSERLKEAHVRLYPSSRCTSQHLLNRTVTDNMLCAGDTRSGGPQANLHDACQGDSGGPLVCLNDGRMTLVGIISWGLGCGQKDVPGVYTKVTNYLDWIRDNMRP
T2 sequence (O15393 whole entry): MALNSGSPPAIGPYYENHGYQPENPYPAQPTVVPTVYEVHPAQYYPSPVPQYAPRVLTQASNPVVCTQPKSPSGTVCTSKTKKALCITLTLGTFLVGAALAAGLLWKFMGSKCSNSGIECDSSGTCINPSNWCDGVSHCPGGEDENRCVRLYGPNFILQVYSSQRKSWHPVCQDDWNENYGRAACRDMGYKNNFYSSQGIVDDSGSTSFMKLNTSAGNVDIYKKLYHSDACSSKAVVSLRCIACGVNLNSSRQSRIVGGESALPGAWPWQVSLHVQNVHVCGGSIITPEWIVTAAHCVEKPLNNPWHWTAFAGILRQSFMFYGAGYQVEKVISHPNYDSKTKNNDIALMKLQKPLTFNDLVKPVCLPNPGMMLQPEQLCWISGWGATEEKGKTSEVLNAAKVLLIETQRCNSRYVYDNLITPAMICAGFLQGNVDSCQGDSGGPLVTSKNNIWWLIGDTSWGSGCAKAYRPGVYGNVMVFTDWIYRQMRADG
T6 sequence (P00742 235-488 limits assumed): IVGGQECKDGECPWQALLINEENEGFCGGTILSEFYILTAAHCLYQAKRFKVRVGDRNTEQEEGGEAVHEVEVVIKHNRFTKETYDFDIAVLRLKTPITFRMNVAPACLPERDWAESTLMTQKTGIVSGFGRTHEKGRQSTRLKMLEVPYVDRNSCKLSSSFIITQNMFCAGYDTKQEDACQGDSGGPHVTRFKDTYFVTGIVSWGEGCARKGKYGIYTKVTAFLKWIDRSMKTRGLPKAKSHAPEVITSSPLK
T6 sequence (P00742 41-179 partner limits assumed): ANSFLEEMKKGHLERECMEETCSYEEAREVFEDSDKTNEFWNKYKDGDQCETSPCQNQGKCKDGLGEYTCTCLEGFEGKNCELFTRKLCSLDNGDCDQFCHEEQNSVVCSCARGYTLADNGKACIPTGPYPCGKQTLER

Compound	Ki [1, 7] [nM]	Ki [2, 7] [nM]	Selectivity index [SI] TMPRSS2 [2]	Ki [3, 7]	Selectivity index [SI] Matriptase [3, 8]	Selectivity index [SI] uPA [1]	Selectivity index [SI] Matriptase [3, 9]	also measured
CC(=O)NCC(=O)NC(C(=O)NC(C)C(=O)NC(CCCNC(=N)N)C(=O)c1nc2ccccc2s1)C(C)O [Compound 14a, Ac-Gly-L-Thr-L-Ala-L-Arg-kbt]	141 ± 28	5 ± 1	0.04	32 ± 14 nM	0.2	–	–	Ki tPA [4]: did not show inhibition; Ki [5]: 4390 ± 1480 nM; Selectivity index [SI] Thrombin [5]: 31; Ki [6]: 3360 ± 320 nM
CC(=O)NCC(=O)NC(C(=O)NC(C)C(=O)NC(CCCNC(=N)N)C(=O)c1nc2ccc(F)cc2s1)C(C)O (stereo not shown) [Compound 14b]	388 ± 95	–	–	–	–	–	–	–
CC(=O)NCC(=O)NC(C(=O)NC(C)C(=O)NC(CCCNC(=N)N)C(=O)c1nc2ccc(Cl)cc2s1)C(C)O (stereo not shown) [Compound 14c]	82 ± 6	9 ± 1	0.1	59 ± 9 nM	0.7	–	–	Ki [5]: 456 ± 72 nM; Selectivity index [SI] Thrombin [5]: 5; Ki [6]: 2450 ± 99 nM; Selectivity index [SI] Factor Xa [6]: 30
CC(=O)NCC(=O)NC(C(=O)NC(C)C(=O)NC(CCCNC(=N)N)C(=O)c1nc2ccc(Br)cc2s1)C(C)O (stereo not shown) [Compound 14d]	60 ± 15	6 ± 1	0.1	38 ± 2 nM	0.6	–	–	Ki [5]: 450 ± 69 nM; Selectivity index [SI] Thrombin [5]: 8; Ki [6]: 2850 ± 844 nM; Selectivity index [SI] Factor Xa [6]: 47
COc1ccc2nc(C(=O)C(CCCNC(=N)N)NC(=O)C(C)NC(=O)C(NC(=O)CNC(C)=O)C(C)O)sc2c1 (stereo not shown) [Compound 14e]	178 ± 19	–	–	–	–	–	–	–
CC(=O)NCC(=O)NC(C(=O)NC(C)C(=O)NC(CCCNC(=N)N)C(=O)c1nc2c(s1)CCCC2)C(C)O (stereo not shown) [Compound 15]	435 ± 33	–	–	–	–	–	–	–
CC(=O)NCC(=O)NC(C(=O)NC(C)C(=O)NC(CCCCNC(=N)N)C(=O)c1nc2ccccc2s1)C(C)O (stereo not shown) [Compound 20]	–	–	–	–	–	–	–	Ki uPA [1, 7]: did not show inhibition; Ki TMPRSS2 [2, 7]: did not show inhibition; Ki Matriptase [3, 7]: did not show inhibition; Ki tPA [4]: did not show inhibition; Ki Thrombin [5]: did not show inhibition; Ki Factor Xa [6]: did not show inhibition
CC(=O)NCC(=O)NC(C(=O)NC(C)C(=O)NC(Cc1ccc(NC(=N)N)cc1)C(=O)c1nc2ccccc2s1)C(C)O (stereo not shown) [Compound 29]	29 ± 2	10 ± 4	0.3	132 nM and 133 nM	4	–	–	Ki tPA [4]: did not inhibit; Ki Thrombin [5]: did not inhibit; Ki Factor Xa [6]: did not inhibit
CC(=O)N[C@@H](CC(N)=O)C(=O)N1CCC[C@H]1C(=O)N[C@@H](Cc1ccc(NC(=N)N)cc1)C(=O)c1nc2ccccc2s1 [Compound 30]	479 ± 17	5 ± 1	–	60 ± 8 nM	–	96	12	–
CC(=O)N[C@@H](CC(N)=O)C(=O)N[C@@H](Cc1ccccc1)C(=O)N[C@@H](Cc1ccc(NC(=N)N)cc1)C(=O)c1nc2ccccc2s1 [Compound 31]	3570 ± 421	0.4 ± 0.1	–	252 ± 67 nM	–	> 5000	630	–
CC(=O)N[C@@H](CC(N)=O)C(=O)N[C@@H](CC1CCCCC1)C(=O)N[C@@H](Cc1ccc(NC(=N)N)cc1)C(=O)c1nc2ccccc2s1 [Compound 32]	2690 ± 217	34 ± 4	–	3330 ± 1140 nM	–	79	98	–
CC(=O)N[C@@H](CC(N)=O)C(=O)N1CCC[C@H]1C(=O)N[C@@H](CC1CCC(NC(=N)N)CC1)C(=O)c1nc2ccccc2s1 (stereo partly shown) [Compound 39]	936 ± 100	44 ± 7	–	1200 ± 181 nM	–	21	27	–
